Columns and labels:
[1] = tested on: Salmonella typhimurium TA 100, TA 1535, TA 98 and TA 1537 strains and Escherichia coli WP 2 uvrA strains; test: Reverse mutation test using bacteria (Ames test), with and without metabolic activation; assay type: cell-based; conditions: 10-5,000 μg/well; with and without Rat Liver S9mix
Description: (6) Reverse Mutation Test Using Bacteria (Ames Test) for Examining Presence of Gentic Toxicity:
Reverse mutation-inducing activity on bacteria of the test compounds was examined by reverse mutation test using bacteria (Mutat. Res., 113, 173-215). The test was conducted by plate incorporation method using Salmonella typhimurium TA 100, TA 1535, TA 98 and TA 1537 strains and Escherichia coli WP 2 uvrA strains as to both cases of not conducting metabolic activation and conducting metabolic activation. The dosages were set at six levels as 10, 50, 100, 500, 1000 and 5,000 μg/well.
Into a sterilized test tube, 0.1 mL of a test compound or a solvent, 0.5 mL of sodium-phosphate buffer (pH=7.4), 0.1 mL of a bacterial suspension and 2 mL of soft agar solution were added and mixed. Where metabolic activation was conducted, […] sodium-phosphate buffer (pH=7.4) was replaced with 0.5 mL of Rat Liver S9mix. The liquid mixture was superposed on the minimum glucose agar medium and after the superposed soft agar solution solidified, the system was cultured at 37° C. for 48 hours. At the end of the culture the number of colonies in which reverse mutation had been induced was visually counted with a colony counter. […]

steroid sulfatase = target: T1, steroid sulfatase (Rattus norvegicus, UniProt P15589); test: Steroid sulfatase inhibitory activity (in vivo), liver and uterus of ovariectomized rats after oral dosing; conditions: 0.5 mg/kg p.o. once a day for seven days, ovariectomized female SD rats
T1 construct: The livers and uteri were separately minced with scissors and suspended in cooled PBS containing 250 mM sucrose; from tissue; host or cells: liver and uterus of ovariectomized female SD rats (2,000 x g supernatant of homogenate)
T1 sequence (P15589 20-577): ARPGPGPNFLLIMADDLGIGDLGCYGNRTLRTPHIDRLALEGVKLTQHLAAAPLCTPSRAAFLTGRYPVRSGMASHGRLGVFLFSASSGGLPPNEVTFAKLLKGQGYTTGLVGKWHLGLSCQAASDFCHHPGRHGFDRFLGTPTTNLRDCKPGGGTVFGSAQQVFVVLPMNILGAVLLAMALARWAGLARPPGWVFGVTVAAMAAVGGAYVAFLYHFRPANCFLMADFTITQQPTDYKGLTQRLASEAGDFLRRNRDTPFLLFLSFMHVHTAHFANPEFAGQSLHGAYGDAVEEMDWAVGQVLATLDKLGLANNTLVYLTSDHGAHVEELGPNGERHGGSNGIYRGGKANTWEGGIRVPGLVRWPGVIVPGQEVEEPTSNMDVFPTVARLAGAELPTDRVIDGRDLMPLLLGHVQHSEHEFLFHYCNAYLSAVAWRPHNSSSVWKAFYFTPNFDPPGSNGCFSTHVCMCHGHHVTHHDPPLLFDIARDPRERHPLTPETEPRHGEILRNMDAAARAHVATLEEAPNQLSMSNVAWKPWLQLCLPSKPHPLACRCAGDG
Description: (2) Measurement of Steroid Sulfatase Inhibitory Activity (in vivo):
To six/group of female SD rats which had undergone ovariectomy, the test compounds as each suspended in 0.5% polyoxyethylene (20) sorbitan monooleate (Tween 80) were orally administered once a day for seven days. On the next day of the last administration, the rats were sacrificed under ether anesthesia. The bodies were anatomized and their livers and uteri were extracted, which were washed with cooled PBS and stored below −70° C. The livers and uteri were separately minced with scissors and suspended in cooled PBS containing 250 mM sucrose. Each of the suspensions was homogenized with a homogenizer under cooling with ice, from which neclei and cell debris were eliminated by centrifugation at 2,000×g for 20 minutes (4° C.). Protein concentration of each of the supernatant was measured by Bradford's method (Anal. Biochem., 72, 248-254 (1976)).
To 2-200 μg of the supernatant protein mass and 50 μL of 60 μM estrone-3-sulfate containing about 100 nCi of [6,7-^3H]estrone-3-sulfate (purchased from Perkin Elmer Life Sciences, Boston, Mass., U.S.A.; specific activity, 40-60 Ci/mmol), PBS was added to make the total amount 150 μL, followed by incubation at 37° C. for 30 minutes. After the incubation, the amount of hydrolyzed [6,7-^3H]estrone-3-sulfate was calculated by a method similar to the in vitro measurement in (1) above. Also steroid sulfatase activity per mg of the protein was calculated, and from the amount of the hydrolyzed [6,7-^3H]estrone-3-sulfate and the calculated steroid sulfatase activity per mg of the protein, the tested compound's steroid sulfatase inhibitory rate was determined.

NS(=O)(=O)Oc1ccc(N2CCN(CCCC3CCCCC3)CC2)cc1F [Example 24, 4-[4-(3-cyclohexylpropyl)piperazin-1-yl]-2-fluorophenyl-O-sulfamate]
Ames test (reverse mutation inducing activity) [1]: negative
Inhibitiory rate (0.5 mg/kg, p.o., %) Liver (steroid sulfatase; liver): 98.30%
Inhibitiory rate (0.5 mg/kg, p.o., %) Uterus (steroid sulfatase; uterus): 97.87%
